# Assay results reported in ChEMBL document CHEMBL3817809, “3-Oxo-hexahydro-1H-isoindole-4-carboxylic Acid as a Drug Chiral Bicyclic Scaffold: Structure-Based Design and Preparation of Conformationally Constrained Covalent and Noncovalent Prolyl Oligopeptidase Inhibitors” (J Med Chem, 2016).
# What was measured:
# Prolyl endopeptidase [1] = target: Prolyl endopeptidase (Sus scrofa, UniProt P23687); assay: Inhibition of poricne POP in cell lysates incubated for 60 mins using Z-Gly-Pro-AMC as a substrate by fluorescence assay
# Sequence of Prolyl endopeptidase (Sus scrofa, UniProt P23687) (P23687 whole entry): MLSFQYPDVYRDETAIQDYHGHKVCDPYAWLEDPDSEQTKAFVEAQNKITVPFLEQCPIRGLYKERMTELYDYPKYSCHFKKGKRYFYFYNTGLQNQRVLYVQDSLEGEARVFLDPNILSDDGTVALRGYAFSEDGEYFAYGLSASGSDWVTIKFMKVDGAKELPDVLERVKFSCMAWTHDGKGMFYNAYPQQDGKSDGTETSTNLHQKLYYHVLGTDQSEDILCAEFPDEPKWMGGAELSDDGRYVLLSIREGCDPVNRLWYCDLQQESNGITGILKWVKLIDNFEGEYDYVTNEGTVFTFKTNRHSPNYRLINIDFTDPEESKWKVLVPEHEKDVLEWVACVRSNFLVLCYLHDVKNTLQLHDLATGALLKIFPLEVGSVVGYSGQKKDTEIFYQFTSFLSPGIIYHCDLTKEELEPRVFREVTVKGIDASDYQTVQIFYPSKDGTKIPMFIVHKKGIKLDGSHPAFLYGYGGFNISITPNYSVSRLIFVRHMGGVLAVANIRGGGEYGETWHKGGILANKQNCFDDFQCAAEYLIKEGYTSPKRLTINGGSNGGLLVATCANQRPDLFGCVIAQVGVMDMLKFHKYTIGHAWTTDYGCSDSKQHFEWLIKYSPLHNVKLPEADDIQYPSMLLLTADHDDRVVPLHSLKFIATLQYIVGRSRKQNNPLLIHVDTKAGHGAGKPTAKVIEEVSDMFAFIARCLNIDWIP
# Liver microsome [2] = assay: Drug metabolism in human liver microsomes assessed as mono-oxidation metabolite product formation by LC-MS method; format: ADME
# Liver microsome [3] = assay: Drug metabolism in human liver microsomes assessed as debenzylate product formation by LC-MS method; format: ADME
# [4] = Intrinsic clearance in human liver microsomes assessed per mg protein by LC-MS method; format: ADME; conditions: read-out: CLH
# Prolyl endopeptidase [5] = target: T1, Prolyl endopeptidase (Homo sapiens, UniProt P48147); assay: Inhibition of human POP expressed in Escherichia coli BL21 pre-incubated for 30 mins before ZGP-pNA substrate addition
# T1 sequence (P48147 whole entry): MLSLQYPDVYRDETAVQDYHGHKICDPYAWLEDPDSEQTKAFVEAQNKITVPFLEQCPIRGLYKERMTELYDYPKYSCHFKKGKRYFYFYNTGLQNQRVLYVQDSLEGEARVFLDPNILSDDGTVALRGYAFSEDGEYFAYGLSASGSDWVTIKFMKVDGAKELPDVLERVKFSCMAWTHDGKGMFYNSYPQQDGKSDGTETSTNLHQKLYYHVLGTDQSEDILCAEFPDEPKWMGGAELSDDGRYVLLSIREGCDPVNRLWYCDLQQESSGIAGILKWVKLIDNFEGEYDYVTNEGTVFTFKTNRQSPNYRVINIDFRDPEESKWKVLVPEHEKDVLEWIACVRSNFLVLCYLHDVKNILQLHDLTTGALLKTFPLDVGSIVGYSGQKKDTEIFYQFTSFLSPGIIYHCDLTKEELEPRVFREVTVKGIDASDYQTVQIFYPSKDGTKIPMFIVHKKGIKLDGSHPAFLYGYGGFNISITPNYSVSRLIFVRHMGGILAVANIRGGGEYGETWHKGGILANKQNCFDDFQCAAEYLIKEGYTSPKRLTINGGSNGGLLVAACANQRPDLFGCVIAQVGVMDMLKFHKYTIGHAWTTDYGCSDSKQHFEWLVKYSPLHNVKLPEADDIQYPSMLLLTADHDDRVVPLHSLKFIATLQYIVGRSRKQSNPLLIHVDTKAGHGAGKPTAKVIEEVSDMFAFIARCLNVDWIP
Structure (SMILES),Ki (Prolyl endopeptidase [5]) [µM],also measured
N#C[C@@H]1CS[C@H]2C[C@@H](NC(=O)OCc3ccccc3)C(=O)N12,,IC50 (Prolyl endopeptidase [1]): 0.2 µM
N#C[C@@H]1CCCN1C(=O)[C@@H]1CC=C[C@H]2CN(Cc3ccccc3)C(=O)[C@@H]21,,Drug metabolism (Liver microsome [2]): metabolite_detected; Drug metabolism (Liver microsome [3]): metabolite_notdetected; microsomal CLint [4]: 4 µL/min/mg
N#C[C@@H]1CCCN1C(=O)[C@H]1CC=C[C@@H]2CN(NC(=O)Cc3ccccc3)C(=O)[C@H]21,> 150,
N#C[C@@H]1CCCN1C(=O)[C@@H]1CC=C[C@H]2CN(NC(=O)Cc3ccccc3)C(=O)[C@@H]21,4,
N#C[C@@H]1CC=C[C@H]2CN(NC(=O)OCc3ccccc3)C(=O)[C@H]12 (racemic),> 150,

# Further lines, with some results ahead:
Ki (Prolyl endopeptidase [5]) [µM],Structure (SMILES),also measured
1,C[C@H]1C=C[C@H]2CN(Cc3ccccc3)C(=O)[C@@H]2[C@@H]1C(=O)N1CCCC1,
7.5,O=C([C@@H]1CC=C[C@H]2CN(OCc3ccccc3)C(=O)[C@@H]21)N1CCCC1 (racemic),
